The source of these data is paper PMC9919513, “A Practical Approach to Bicyclic Carbamoyl Pyridones with Application to the Synthesis of HIV-1 Integrase Strand Transfer Inhibitors” (Molecules, 2023).

The structures appear in SMILES notation.

A short description of one data set: in vitro. It counts as cell-based. As to conditions: human, HOS cells, 48 h; read-out: CC50, cytotoxic concentration resulting in 50% reduction in the level of ATP. The procedure: Human embryonic kidney cell culture cell line 293 was acquired from the American Type Culture Collection (ATCC). The human osteosarcoma cell line, HOS, was obtained from Dr. Richard Schwartz (Michigan State University, East Lansing, MI, USA) and grown in Dulbecco’s modified Eagle’s medium (Invitrogen, Carlsbad, CA, USA) supplemented with 5% (v/v) fetal bovine serum, 5% newborn calf serum, and penicillin (50 units/mL) plus streptomycin (50 µg/mL; Quality Biological, Gaithersburg, MD, USA). The transfection vector, pNLNgoMIVR-ΔLUC was made from pNLNgoMIVR-ΔEnv.HSA by removing the HSA reporter gene and replacing it with a luciferase reporter gene between the NotI and XhoI restriction sites. To produce the new IN mutant S230N used in this study, the IN open reading frame was removed from pNLNgoMIVR-ΔENV.LUC by digestion with KpnI and SalI, and the resulting fragment was inserted between the KpnI and SalI sites of pBluescript KS+. Using that construct as the wild-type template, we prepared the following HIV-1 IN mutant S230N using the QuikChange II XL site-directed mutagenesis kit (Agilent Technologies, Santa Clara, CA, USA) protocol. The following sense oligonucleotides were used with matching cognate antisense oligonucleotides (not shown) (Integrated DNA Technologies, Coralville, IA, USA) in the mutagenesis: S230N 5′-[…]-3′. The DNA sequence of the IN mutant S230N construct was verified independently by DNA sequence determination. The mutated IN coding sequences from pBluescript KS+ were then subcloned into pNLNgoMIVR-ΔEnv.LUC (between the KpnI and SalI sites) to produce mutant HIV-1 constructs, which were also checked by DNA sequencing. […]. On the day prior to transfection, 293 cells were plated on 100 mm diameter dishes at a density of 1.5 × 10^6 cells per plate. Next, 293 cells were transfected with 16 µg of pNLNgoMIVR^-ΔLUC and 4 µg of pHCMV-g (obtained from Dr. Jane Burns, University of California, San Diego) using the calcium phosphate method. At approximately 6 h after the calcium phosphate precipitate was added, 293 cells were washed twice with phosphate-buffered saline (PBS) and incubated with fresh media for 48 h. The virus-containing supernatants were then harvested, clarified by low-speed centrifugation, filtrated, and diluted for preparation in antiviral infection assays. On the day prior to the screen, HOS cells were seeded in a 96-well luminescence cell culture plate at a density of 4000 cells in 100 µL per well. On the day of the screen for cellular cytotoxicity determination, cells were treated with compounds from a concentration range of 250 µM to 0.05 µM and then incubated at 37 °C for 48 h. On the day of the screen for antiviral activity infection assays, cells were treated with compounds from a concentration range of 5 µM to 0.0001 µM using 11 serial dilutions and then incubated at 37 °C for 3 h. After compound incorporation and activation in the cell, 100 µL of virus-stock (WT or mutant) diluted to achieve a luciferase signal between 0.2 and 1.5 Relative Luciferase Units (RLUs) was added to each well and further incubated at 37 °C for 48 h. Cellular cytotoxicity was measured by using the ATP Lite Luminescence detection system and monitored by adding 50 µL of cell lysis buffer from the Luminescence ATP detection assay to each well followed by mixing at 700 rpm at room temperature for 5 min using a compact thermomixer. After addition of 50 µL of reconstituted Luminescence ATP detection assay reagent to all wells except for the negative control/background wells, the plates were mixed at 700 rpm at room temperature for 5 min using a compact thermomixer, incubated at room temperature for 20 min to allow time for signal development, and finally, cytotoxicity was determined using the microplate reader. Infectivity was measured by using the Steady-lite plus luminescence reporter gene assay system (PerkinElmer, Waltham, MA, USA). […]

Turning to `O=C(NCc1ccc(F)cc1F)c1cn2ccn(CCCCCO)c(=O)c2c(O)c1=O` [Compound 6d, N-(2,4-Difluorobenzyl)-9-hydroxy-2-(5-hydroxypentyl)-1,8-dioxo-1,8-dihydro-2H-pyrido [1,2-a]pyrazine-7-carboxamide], the CC50 in the data set “in vitro” was > 250 µM.

Take `O=C(NCc1ccc(F)cc1F)c1cn2c(c(O)c1=O)C(=O)N(CCCCCCO)CC2` [Compound 7c, N-(2,4-Difluorobenzyl)-9-hydroxy-2-(6-hydroxyhexyl)-1,8-dioxo-1,3,4,8-tetrahydro-2H-pyrido [1,2-a]pyrazine-7-carboxamide]: the melting point (usually the temperature, or range, at which the solid turns liquid) is 208 to 210 °C. For the same compound, the CC50 in “in vitro” is > 250 µM.

Take `O=C(NCc1ccc(F)cc1F)c1cn2ccn(CCCCCCO)c(=O)c2c(O)c1=O` [Compound 6c, N-(2,4-Difluorobenzyl)-9-hydroxy-2-(6-hydroxyhexyl)-1,8-dioxo-1,8-dihydro-2H-pyrido [1,2-a]pyrazine-7-carboxamide]: the CC50 in the data set “in vitro” is > 250 µM.

Compound `O=C(NCc1ccc(F)cc1F)c1cn2c(c(O)c1=O)C(=O)N(CCCCO)CC2` [Compound 7e, N-(2,4-Difluorobenzyl)-9-hydroxy-2-(4-hydroxybutyl)-1,8-dioxo-1,3,4,8-tetrahydro-2H-pyrido [1,2-a]pyrazine-7-carboxamide] displayed a melting point of 210 to 215 °C. Besides, in “in vitro”, the CC50 was > 250 µM.

Turning to `O=C(NCc1ccc(F)cc1F)c1cn2ccn(CCCCO)c(=O)c2c(O)c1=O` [Compound 6e, N-(2,4-Difluorobenzyl)-9-hydroxy-2-(4-hydroxybutyl)-1,8-dioxo-1,8-dihydro-2H-pyrido [1,2-a]pyrazine-7-carboxamide], in “in vitro”, the CC50 was > 250 µM.
